The values below come from article PMC8645336, “Benchmarking a highly selective USP30 inhibitor for enhancement of mitophagy and pexophagy” (Life Science Alliance, 2021).

Assay in all cases: biochemical
Design in all cases: Ubiquigent DUB profiler selectivity panel, remaining enzyme activity as % of control
What all share (conditions): read-out: % of control remaining

The target of experiment [1] is T1, BAP1 (Homo sapiens, UniProt Q92560).
T1 sequence (Q92560 1-729): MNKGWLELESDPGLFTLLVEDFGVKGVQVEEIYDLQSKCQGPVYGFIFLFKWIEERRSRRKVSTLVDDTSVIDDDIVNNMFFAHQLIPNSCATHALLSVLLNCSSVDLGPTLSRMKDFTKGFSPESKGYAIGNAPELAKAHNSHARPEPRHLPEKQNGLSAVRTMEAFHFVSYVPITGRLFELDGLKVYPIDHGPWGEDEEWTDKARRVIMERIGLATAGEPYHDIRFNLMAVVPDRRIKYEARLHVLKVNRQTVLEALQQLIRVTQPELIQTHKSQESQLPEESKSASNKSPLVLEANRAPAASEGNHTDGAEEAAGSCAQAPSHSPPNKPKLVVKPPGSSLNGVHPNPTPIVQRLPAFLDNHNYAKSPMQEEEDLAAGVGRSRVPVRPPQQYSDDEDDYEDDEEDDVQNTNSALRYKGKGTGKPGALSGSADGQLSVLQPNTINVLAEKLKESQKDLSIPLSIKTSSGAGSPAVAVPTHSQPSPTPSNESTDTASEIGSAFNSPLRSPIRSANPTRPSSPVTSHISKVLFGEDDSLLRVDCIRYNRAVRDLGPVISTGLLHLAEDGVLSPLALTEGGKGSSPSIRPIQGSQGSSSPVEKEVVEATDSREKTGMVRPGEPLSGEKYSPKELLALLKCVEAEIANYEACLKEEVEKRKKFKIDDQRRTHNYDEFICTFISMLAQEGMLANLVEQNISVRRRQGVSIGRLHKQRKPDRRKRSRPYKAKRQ
On the procedure: (§1) Previous work has reported IC50 values for a series of benzosulphonamide inhibitors, of which all those <1 μM were screened for selectivity, in comparison to three other USP family members ([20], [21]). We have selected one of these compounds (CMPD-39, Fig 1A) for a more rigorous test of selectivity provided by the Ubiquigent DUB profiler screening platform comprising >40 DUBs. […] To test engagement of the inhibitor with USP30 applied to intact cells, we assayed competition with Ub-PA (Ub-propargylamide). Ub-PA covalently binds to the USP30 active site leading to a characteristic upshift on a SDS–PAGE gel ([22]). If a drug blocks access to the catalytic site, then the probe modification is blocked and the apparent molecular weight of USP30 shifts down accordingly. […] A robust proxy read-out for target engagement is the enhancement of TOMM20 ubiquitylation after mitochondrial depolarization ([6], [16]). This second assay indicates a maximal effect with 200 nM CMPD-39 applied to RPE1-YFP-PRKN cells (Fig 1D).  Figure 1. CMPD-39 is a selective USP30 inhibitor. (A) Chemical structure of CMPD-39. (B) DUB specificity screen (DUB profiler, Ubiquigent) with 1-100 μM CMPD-39. […] Samples were incubated with CMPD-39 for 2 h at the indicated concentrations, then incubated with HA-Ub-PA probe for 10 min at 37°C and immunoblotted as shown. Red arrow indicates unbound USP30; blue arrow represents probe bound USP30. (D) Inhibition of USP30 enhances the ubiquitylation of TOMM20 in YFP-PRKN over-expressing hTERT-RPE1 cells in a concentration dependent manner in response to mitophagy induction. Cells were treated for 1 h with DMSO or antimycin A and oligomycin A (AO; 1 μM each) in the absence or presence of CMPD-39 at the indicated concentrations, lysed, and analyzed by Western blotting. Black arrow indicates unmodified TOMM20, ubiquitylated species are indicated by red (mono-ubiquitylated) or blue arrow heads. […] Source data are available for this figure.

Experiment [2] deals with T2, OTU1 (Homo sapiens, UniProt Q5VVQ6).
T2 construct: gene YOD1
T2 sequence (Q5VVQ6 1-348): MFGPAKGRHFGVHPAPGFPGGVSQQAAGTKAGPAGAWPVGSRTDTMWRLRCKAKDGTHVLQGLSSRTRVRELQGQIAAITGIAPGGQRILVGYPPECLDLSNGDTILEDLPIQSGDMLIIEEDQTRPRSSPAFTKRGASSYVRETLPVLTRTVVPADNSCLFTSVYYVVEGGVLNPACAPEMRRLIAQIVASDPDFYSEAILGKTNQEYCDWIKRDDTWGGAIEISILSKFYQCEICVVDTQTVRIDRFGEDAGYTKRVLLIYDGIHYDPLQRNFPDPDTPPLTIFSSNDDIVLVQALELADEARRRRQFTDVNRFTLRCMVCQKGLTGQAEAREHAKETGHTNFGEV
On the procedure: as §1

The target in experiment [3] is T3, OTUB2 (Homo sapiens, UniProt Q96DC9).
T3 sequence (Q96DC9 1-234): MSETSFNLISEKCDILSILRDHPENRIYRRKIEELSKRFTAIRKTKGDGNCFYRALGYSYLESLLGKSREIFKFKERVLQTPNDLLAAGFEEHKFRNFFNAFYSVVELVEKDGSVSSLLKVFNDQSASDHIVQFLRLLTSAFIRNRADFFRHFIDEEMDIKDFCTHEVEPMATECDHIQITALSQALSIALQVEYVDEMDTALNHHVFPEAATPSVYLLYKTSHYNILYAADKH
The procedure: as §1

In experiment [4] the target is T4, UCHL3 (Homo sapiens, UniProt P15374).
T4 sequence (P15374 1-230): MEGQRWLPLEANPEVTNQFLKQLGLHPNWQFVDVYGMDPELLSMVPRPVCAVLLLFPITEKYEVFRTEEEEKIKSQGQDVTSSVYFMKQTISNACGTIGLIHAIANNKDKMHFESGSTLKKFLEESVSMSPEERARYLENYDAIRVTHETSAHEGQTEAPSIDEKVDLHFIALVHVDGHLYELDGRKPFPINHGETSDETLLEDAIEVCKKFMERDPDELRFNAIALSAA
On the procedure:
as §1

The target of experiment [5] is USP7 (Homo sapiens, UniProt Q93009). On the procedure: as §1
Sequence of USP7 (Q93009 whole entry): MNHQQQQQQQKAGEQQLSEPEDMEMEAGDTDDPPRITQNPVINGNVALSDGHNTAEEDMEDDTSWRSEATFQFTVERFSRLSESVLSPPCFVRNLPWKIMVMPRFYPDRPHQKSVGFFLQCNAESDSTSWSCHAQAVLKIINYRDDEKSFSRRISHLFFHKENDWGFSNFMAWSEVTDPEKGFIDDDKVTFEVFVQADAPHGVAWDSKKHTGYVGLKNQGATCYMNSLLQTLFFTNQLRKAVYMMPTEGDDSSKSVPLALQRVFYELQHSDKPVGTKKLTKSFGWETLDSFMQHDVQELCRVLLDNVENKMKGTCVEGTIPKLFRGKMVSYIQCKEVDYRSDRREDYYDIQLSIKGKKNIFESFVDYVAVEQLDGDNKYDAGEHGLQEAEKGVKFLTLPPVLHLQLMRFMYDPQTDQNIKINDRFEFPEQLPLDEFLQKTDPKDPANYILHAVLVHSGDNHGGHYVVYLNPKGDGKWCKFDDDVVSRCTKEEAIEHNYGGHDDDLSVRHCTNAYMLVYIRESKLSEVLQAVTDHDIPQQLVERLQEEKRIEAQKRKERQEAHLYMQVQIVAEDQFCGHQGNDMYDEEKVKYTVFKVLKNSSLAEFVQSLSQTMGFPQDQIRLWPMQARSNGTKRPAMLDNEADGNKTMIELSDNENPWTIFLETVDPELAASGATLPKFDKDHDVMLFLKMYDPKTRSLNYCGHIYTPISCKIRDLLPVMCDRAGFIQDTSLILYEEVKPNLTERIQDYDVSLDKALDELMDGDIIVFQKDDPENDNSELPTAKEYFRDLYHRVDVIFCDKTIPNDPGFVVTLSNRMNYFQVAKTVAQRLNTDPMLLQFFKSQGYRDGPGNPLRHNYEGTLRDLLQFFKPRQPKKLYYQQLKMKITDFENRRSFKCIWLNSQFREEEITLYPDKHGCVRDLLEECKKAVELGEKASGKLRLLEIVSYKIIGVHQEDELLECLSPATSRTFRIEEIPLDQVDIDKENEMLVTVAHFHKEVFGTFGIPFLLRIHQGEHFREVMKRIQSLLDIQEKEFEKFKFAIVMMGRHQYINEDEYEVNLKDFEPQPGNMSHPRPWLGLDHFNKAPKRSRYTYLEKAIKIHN

Turning to `CC(C)(C)NS(=O)(=O)c1ccc(NC(=O)[C@H](Cc2ccccc2)NC(=O)c2ccc(F)cc2)cc1` [compound 39, CMPD-39], the remaining activity at 1 µM in experiment [1] stood at 104%; in experiment [2], 105%; in experiment [3], 103%; in experiment [4] it was 107%; in experiment [5], 106%. In addition, the remaining activity at 10 µM in experiment [1] is 89%; in experiment [2], 97.8%; in experiment [3], 97.5%; in experiment [4] it was 98.8%; in experiment [5], 98.4%. Moreover, the remaining activity at 100 µM in experiment [1] was 96.5%; in experiment [2], 101%; in experiment [3] it was 97.3%; in experiment [4] it was 97.6%; in experiment [5], 94.1%.
